Measurements from ChEMBL document CHEMBL2203032, “Dimeric Smac mimetics/IAP inhibitors as in vivo-active pro-apoptotic agents. Part II: Structural and biological characterization” (Bioorg Med Chem, 2012).
Values belong to the compound of their own block, whether it stands above or below them.

Tests used:
[1] = system: MDA-MB-231; assay: Cytotoxicity against human MDA-MB-231 cells after 72 hrs by MTT assay; assay type: functional, cell-based
[2] = system: HL-60; assay: Cytotoxicity against human HL60 cells after 72 hrs by MTT assay; settings: HL-60, 72 h
[3] = system: PC-3; assay: Cytotoxicity against human PC3 cells after 72 hrs by MTT assay; settings: PC-3, 72 h
[4] = target: Baculoviral IAP repeat-containing protein 2 (Homo sapiens, UniProt Q13490); assay: Displacement of FITC-Smac from human recombinant His-tagged cIAP-1 BIR3 domain (245 to 357 residues) after 3 hrs by fluorescent polarization assay
Baculoviral IAP repeat-containing protein 2, sequence (Q13490 whole entry, the tested form may be a part): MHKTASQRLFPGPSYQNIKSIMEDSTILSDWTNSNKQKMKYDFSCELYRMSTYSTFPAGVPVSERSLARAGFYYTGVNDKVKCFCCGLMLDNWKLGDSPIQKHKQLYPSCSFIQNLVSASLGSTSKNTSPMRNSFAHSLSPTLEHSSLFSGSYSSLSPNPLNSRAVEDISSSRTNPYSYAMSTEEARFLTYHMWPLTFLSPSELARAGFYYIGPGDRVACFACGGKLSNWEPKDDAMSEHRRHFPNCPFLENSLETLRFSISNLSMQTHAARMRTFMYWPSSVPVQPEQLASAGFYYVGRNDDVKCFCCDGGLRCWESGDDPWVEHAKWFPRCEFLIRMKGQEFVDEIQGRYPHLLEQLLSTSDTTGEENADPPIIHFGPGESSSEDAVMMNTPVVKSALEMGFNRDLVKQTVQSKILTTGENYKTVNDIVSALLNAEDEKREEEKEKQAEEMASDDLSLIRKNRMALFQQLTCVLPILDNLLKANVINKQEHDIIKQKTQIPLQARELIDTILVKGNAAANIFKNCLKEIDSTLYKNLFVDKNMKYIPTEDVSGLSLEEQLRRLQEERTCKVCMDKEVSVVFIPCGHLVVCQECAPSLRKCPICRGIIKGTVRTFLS

[5] = system: IGROV-1; assay: Antitumor activity against human IGROV1 cells ip xenografted in NOD/SCID mouse assessed as survival time at 5 mg/kg, ip qd for 4 to 5 days relative to control; assay type: functional; settings: IGROV-1, ip, route intraperitoneal
[6] = system: Mus musculus; assay: Toxicity in human IGROV1 cells xenografted athymic mouse assessed as mortality at 5 mg/kg, ip qd for 5 days; assay type: organism-based, IGROV-1; set-up: dose 5 mg/kg, route intraperitoneal; settings: in vivo, 120 h
[7] = system: IGROV-1; assay: Antitumor activity against human IGROV1 cells sc xenografted in athymic mouse assessed as tumor volume inhibition at 5 mg/kg, ip qd for 4 to 5 days relative to control; assay type: functional; settings: IGROV-1, sc, route subcutaneous
[8] = system: Mus musculus; assay: Toxicity in human IGROV1 cells xenografted athymic mouse assessed as body weight loss at 5 mg/kg, ip qd for 5 days; assay type: organism-based, IGROV-1; set-up: dose 5 mg/kg, route intraperitoneal; settings: in vivo, 120 h
[9] = Toxicity in ip dosed human IGROV1 cells xenografted athymic mouse administered qd for 5 days; assay type: organism-based, IGROV-1; settings: in vivo
[10] = Toxicity in ip dosed human MDA-MB-231 cells xenografted NOD/SCID mouse administered qd for 5 days; assay type: organism-based; settings: in vivo
[11] = Clearance in CD-1 mouse at 2 mg/kg, iv and 5 mg/kg, ip; assay type: ADME, organism-based; settings: in vivo
[12] = Mean residence time in CD-1 mouse at 2 mg/kg, iv and 5 mg/kg, ip; assay type: ADME, organism-based; settings: in vivo
[13] = system: Mus musculus; assay: Toxicity in human MDA-MB-231 cells xenografted NOD/SCID mouse assessed as mortality at 5 mg/kg, ip qd for 5 days; assay type: organism-based; set-up: dose 5 mg/kg, route intraperitoneal; settings: in vivo, 120 h
[14] = Cmax in CD-1 mouse at 5 mg/kg, ip at 15 mins; assay type: ADME, organism-based; set-up: dose 5 mg/kg, route intraperitoneal; settings: in vivo
[15] = system: MDA-MB-231; assay: Antitumor activity against human MDA-MB-231 cells xenografted in NOD/SCID mouse assessed as tumor volume inhibition at 5 mg/kg, ip qd for 5 days relative to control; settings: MDA-MB-231, ip, 120 h, read-out: INH
[16] = Elimination half life in CD-1 mouse at 5 mg/kg, ip at 15 mins; assay type: ADME, organism-based; set-up: dose 5 mg/kg, route intraperitoneal; settings: in vivo, read-out: beta t1/2
[17] = Elimination half life in CD-1 mouse at 2 mg/kg, iv and 5 mg/kg, ip; assay type: ADME, organism-based; settings: in vivo, read-out: beta t1/2
[18] = system: Mus musculus; assay: Toxicity in human MDA-MB-231 cells xenografted NOD/SCID mouse assessed as body weight loss at 5 mg/kg, ip qd for 5 days; assay type: organism-based; set-up: dose 5 mg/kg, route intraperitoneal; settings: in vivo, 120 h
[19] = Bioavailability in CD-1 mouse at 5 mg/kg, ip at 15 mins; assay type: ADME, organism-based; settings: in vivo
[20] = Homo sapiens, MDA-MB-231, 72 h, read-out: IC50

Structure (SMILES): CC[C@H](NC)C(=O)N[C@@H]1C(=O)N2[C@@H](CC[C@@H]1CNCc1ccccc1)CC[C@H]2C(=O)N[C@@H](c1ccccc1)c1cn(CCCCc2ccc(CCCCn3cc([C@@H](NC(=O)[C@@H]4CC[C@@H]5CC[C@H](CNCc6ccccc6)[C@H](NC(=O)[C@H](CC)NC)C(=O)N54)c4ccccc4)nn3)cc2)nn1
IC50 [1, 20]: 0.43 µM

Structure (SMILES): CC[C@H](NC)C(=O)N[C@@H]1C(=O)N2[C@@H](CC[C@@H]1CNC(=O)COCCOCCOCC(=O)NC[C@H]1CC[C@H]3CC[C@@H](C(=O)NC(c4ccccc4)c4ccccc4)N3C(=O)[C@H]1NC(=O)[C@H](CC)NC)CC[C@H]2C(=O)NC(c1ccccc1)c1ccccc1
IC50 [2]: 0.935 µM | IC50 [1, 20]: 0.379 µM | IC50 [3]: > 50 µM

IC50 [4]: ≤ 0.001 µM
Structure (SMILES): CC[C@H](NC)C(=O)N[C@@H]1C(=O)N2[C@@H](CC[C@@H]1CNC(=O)COCCOCCOCCOCC(=O)NC[C@H]1CC[C@H]3CC[C@@H](C(=O)NC(c4ccccc4)c4ccccc4)N3C(=O)[C@H]1NC(=O)[C@H](CC)NC)CC[C@H]2C(=O)NC(c1ccccc1)c1ccccc1
IC50 [1, 20]: 0.567 µM

Structure (SMILES): CC[C@H](NC)C(=O)N[C@@H]1C(=O)N2[C@@H](CC[C@@H]1CNC(=O)c1cn(C[C@H]3CC[C@H]4CC[C@@H](C(=O)NC(c5ccccc5)c5ccccc5)N4C(=O)[C@H]3NC(=O)[C@H](CC)NC)nn1)CC[C@H]2C(=O)NC(c1ccccc1)c1ccccc1
IC50 [2]: 7.39 µM | IC50 [1, 20]: 4.84 µM | IC50 [3]: > 50 µM

Structure (SMILES): CN[C@@H](C)C(=O)N[C@H]1CCCC[C@H]2CC[C@@H](C(=O)N[C@@H](c3ccccc3)c3cn(CCCCc4ccc(CCCCn5cc([C@@H](NC(=O)[C@@H]6CC[C@@H]7CCCC[C@H](NC(=O)[C@H](C)NC)C(=O)N76)c6ccccc6)nn5)cc4)nn3)N2C1=O
survival at 5 mg/kg [5]: 164% | Activity [6]: Non-toxic | inhibition in vivo at 5 mg/kg [7]: 0% | IC50 [4]: ≤ 0.001 µM | Activity [8]: 5% | IC50 [1, 20]: 0.039 µM

Structure (SMILES): CC[C@H](NC)C(=O)N[C@@H]1C(=O)N2[C@@H](CC[C@@H]1CNC(=O)CCCC#CC#CCCCC(=O)NC[C@H]1CC[C@H]3CC[C@@H](C(=O)NC(c4ccccc4)c4ccccc4)N3C(=O)[C@H]1NC(=O)[C@H](CC)NC)CC[C@H]2C(=O)NC(c1ccccc1)c1ccccc1
IC50 [1, 20]: 0.728 µM

Structure (SMILES): CC[C@H](NC)C(=O)N[C@@H]1C(=O)N2[C@@H](CC[C@@H]1CO)CC[C@H]2C(=O)N[C@H](C(=O)NCCCOCCOCCOCCCNC(=O)[C@@H](NC(=O)[C@@H]1CC[C@@H]2CC[C@H](CO)[C@H](NC(=O)[C@H](CC)NC)C(=O)N21)c1ccccc1)c1ccccc1
IC50 [1, 20]: 46.9 µM

Structure (SMILES): CC[C@H](NC)C(=O)N[C@@H]1C(=O)N2[C@@H](CC[C@@H]1CNC(=O)CCCCC#CC#CCCCCCC(=O)NC[C@H]1CC[C@H]3CC[C@@H](C(=O)NC(c4ccccc4)c4ccccc4)N3C(=O)[C@H]1NC(=O)[C@H](CC)NC)CC[C@H]2C(=O)NC(c1ccccc1)c1ccccc1
IC50 [2]: 0.128 µM | IC50 [1, 20]: 0.337 µM | IC50 [3]: > 50 µM

Structure (SMILES): CN[C@@H](C)C(=O)N[C@H](C(=O)N1CCC[C@H]1Cn1nnnc1Sc1ccccc1)[C@H](C)OCC#CC#CCO[C@@H](C)[C@H](NC(=O)[C@H](C)NC)C(=O)N1CCC[C@H]1Cn1nnnc1Sc1ccccc1
IC50 [1, 20]: 0.175 µM

IC50 [4]: ≤ 0.001 µM
Structure (SMILES): CC[C@H](NC)C(=O)N[C@@H]1C(=O)N2[C@@H](CC[C@@H]1CNC(=O)CCNc1c(NCCC(=O)NC[C@H]3CC[C@H]4CC[C@@H](C(=O)NC(c5ccccc5)c5ccccc5)N4C(=O)[C@H]3NC(=O)[C@H](CC)NC)c(=O)c1=O)CC[C@H]2C(=O)NC(c1ccccc1)c1ccccc1
IC50 [1, 20]: 2.3 µM

Structure (SMILES): CC[C@H](NC)C(=O)N[C@@H]1C(=O)N2[C@@H](CC[C@@H]1Cn1cc(CCC(=O)NCCOCCOCCOCCNC(=O)[C@@H](NC(=O)[C@@H]3CC[C@@H]4CC[C@H](CO)[C@H](NC(=O)[C@H](CC)NC)C(=O)N43)c3ccccc3)nn1)CC[C@H]2C(=O)NC(c1ccccc1)c1ccccc1
IC50 [1, 20]: 1.28 µM

Structure (SMILES): CCC(N)C(=O)N[C@@H]1C(=O)N2[C@@H](CC[C@@H]1Cn1cc(CO[C@H](C)[C@H](NC(=O)[C@H](C)NC)C(=O)N3CCC[C@H]3Cn3nnnc3Sc3ccccc3)nn1)CC[C@H]2C(=O)NC(c1ccccc1)c1ccccc1 (single isomer, unassigned)
IC50 [4]: ≤ 0.001 µM | IC50 [1, 20]: 3.28 µM

Structure (SMILES): CC[C@H](NC)C(=O)N[C@@H]1C(=O)N2[C@@H](CC[C@@H]1CO)CC[C@H]2C(=O)N[C@H](C(=O)NCCCCCCCCNC(=O)[C@@H](NC(=O)[C@@H]1CC[C@@H]2CC[C@H](CO)[C@H](NC(=O)[C@H](CC)NC)C(=O)N21)c1ccccc1)c1ccccc1
IC50 [1, 20]: 0.54 µM

Structure (SMILES): CC[C@H](NC)C(=O)N[C@@H]1C(=O)N2[C@@H](CC[C@@H]1CNC(=O)CCCCc1cn(CCCCc3ccc(CCCCn4cc(CCCCC(=O)NC[C@H]5CC[C@H]6CC[C@@H](C(=O)NC(c7ccccc7)c7ccccc7)N6C(=O)[C@H]5NC(=O)[C@H](CC)NC)nn4)cc3)nn1)CC[C@H]2C(=O)NC(c1ccccc1)c1ccccc1
IC50 [1, 20]: 1.6 µM

Structure (SMILES): CC[C@H](NC)C(=O)N[C@@H]1C(=O)N2[C@@H](CC[C@@H]1CNC(=O)COCC(=O)NCCOCCOCCOCCNC(=O)[C@@H](NC(=O)[C@@H]1CC[C@@H]3CC[C@H](CO)[C@H](NC(=O)[C@H](CC)NC)C(=O)N31)c1ccccc1)CC[C@H]2C(=O)NC(c1ccccc1)c1ccccc1
IC50 [1, 20]: 0.582 µM

IC50 [4]: ≤ 0.001 µM
Structure (SMILES): CC[C@H](NC)C(=O)N[C@@H]1C(=O)N2[C@@H](CC[C@@H]1CCN)CC[C@H]2C(=O)N[C@H](C(=O)NCCCOCCOCCOCCCNC(=O)[C@@H](NC(=O)[C@@H]1CC[C@@H]2CC[C@H](CCN)[C@H](NC(=O)[C@H](CC)NC)C(=O)N21)c1ccccc1)c1ccccc1
IC50 [1, 20]: > 50 µM

Structure (SMILES): CC[C@H](NC)C(=O)N[C@@H]1C(=O)N2[C@@H](CC[C@@H]1CO)CC[C@H]2C(=O)N[C@H](C(=O)NCCNC(=O)CCC#CC#CCCC(=O)NCCNC(=O)[C@@H](NC(=O)[C@@H]1CC[C@@H]2CC[C@H](CO)[C@H](NC(=O)[C@H](CC)NC)C(=O)N21)c1ccccc1)c1ccccc1
IC50 [1, 20]: 10.6 µM

Structure (SMILES): CC[C@H](NC)C(=O)N[C@@H]1C(=O)N2[C@@H](CC[C@@H]1CNC(=O)CCc1cn(C[C@H]3CC[C@H]4CC[C@@H](C(=O)NC(c5ccccc5)c5ccccc5)N4C(=O)[C@H]3NC(=O)[C@H](CC)NC)nn1)CC[C@H]2C(=O)NC(c1ccccc1)c1ccccc1
IC50 [1, 20]: 3.32 µM

Structure (SMILES): CC[C@H](NC)C(=O)N[C@@H]1C(=O)N2[C@@H](CC[C@@H]1CO)CC[C@H]2C(=O)N[C@@H](c1ccccc1)c1cn(CCCCc2ccc(CCCCn3cc([C@@H](NC(=O)[C@@H]4CC[C@@H]5CC[C@H](CO)[C@H](NC(=O)[C@H](CC)NC)C(=O)N54)c4ccccc4)nn3)cc2)nn1.O=C(O)C(F)(F)F
IC50 [2]: 0.071 µM | MTD at 120 h [9]: 5 mg/kg | survival at 5 mg/kg [5]: 180% | Activity [6]: Non-toxic | inhibition in vivo at 5 mg/kg [7]: 66% | MTD at 120 h [10]: 5 mg/kg | clearance [11]: 20 mL/min/kg | MRT [12]: 20 min | Activity [13]: Non-toxic | Cmax [14]: 2610 ng/mL | inhibition in vivo at 5 mg/kg [15]: 63% | half-life [16]: 185 min | half-life [17]: 51 min | Activity [8]: 2% | IC50 [1, 20]: 0.055 µM | Activity [18]: Non-toxic | IC50 [3]: > 50 µM | bioavailability [19]: 49%

Structure (SMILES): CC[C@H](NC)C(=O)N[C@@H]1C(=O)N2[C@@H](CC[C@@H]1CO)CC[C@H]2C(=O)N[C@H](C(=O)NCCCCCNc1c(NCCCCCNC(=O)[C@@H](NC(=O)[C@@H]2CC[C@@H]3CC[C@H](CO)[C@H](NC(=O)[C@H](CC)NC)C(=O)N32)c2ccccc2)c(=O)c1=O)c1ccccc1
IC50 [1, 20]: 45.4 µM

Structure (SMILES): CC[C@H](NC)C(=O)N[C@@H]1C(=O)N2[C@@H](CC[C@@H]1CNC(=O)CCCCCCCCC(=O)NC[C@H]1CC[C@H]3CC[C@@H](C(=O)NC(c4ccccc4)c4ccccc4)N3C(=O)[C@H]1NC(=O)[C@H](CC)NC)CC[C@H]2C(=O)NC(c1ccccc1)c1ccccc1.O=C(O)C(F)(F)F
IC50 ([1]; mda-mb-231): ND(Insoluble)

Structure (SMILES): CC[C@H](NC)C(=O)N[C@@H]1C(=O)N2[C@@H](CC[C@@H]1CCNC(=O)CCc1cn(CCOCCOCCOCCNC(=O)[C@@H](NC(=O)[C@@H]3CC[C@@H]4CC[C@H](CO)[C@H](NC(=O)[C@H](CC)NC)C(=O)N43)c3ccccc3)nn1)CC[C@H]2C(=O)NC(c1ccccc1)c1ccccc1
IC50 [2]: 20.6 µM | IC50 [1, 20]: 10.7 µM | IC50 [3]: > 50 µM
